For 9 compounds, EC50 and IC50 results are on record in patent US8227422B2, “Peptides and compounds that bind to a receptor” (Glaxosmithkline LLC, priority 1996, dated 2012).

SMILES strings stand for the structures. Where two headings read alike, the source gives them in different places. Where a SMILES comes first, the peptide text is derived from it. Where only a bound is given, the exact number is not on record here.

For test [1], the target named is T1, human TPO-R (transfected Ba/F3 cells) (Homo sapiens, UniProt P40238).
T1 construct: Murine IL-3 dependent Ba/F3 cells were transfected with full length human TPO-R; expressed in transfected cells; host or cells: murine Ba/F3 cells
T1 sequence (P40238 26-635): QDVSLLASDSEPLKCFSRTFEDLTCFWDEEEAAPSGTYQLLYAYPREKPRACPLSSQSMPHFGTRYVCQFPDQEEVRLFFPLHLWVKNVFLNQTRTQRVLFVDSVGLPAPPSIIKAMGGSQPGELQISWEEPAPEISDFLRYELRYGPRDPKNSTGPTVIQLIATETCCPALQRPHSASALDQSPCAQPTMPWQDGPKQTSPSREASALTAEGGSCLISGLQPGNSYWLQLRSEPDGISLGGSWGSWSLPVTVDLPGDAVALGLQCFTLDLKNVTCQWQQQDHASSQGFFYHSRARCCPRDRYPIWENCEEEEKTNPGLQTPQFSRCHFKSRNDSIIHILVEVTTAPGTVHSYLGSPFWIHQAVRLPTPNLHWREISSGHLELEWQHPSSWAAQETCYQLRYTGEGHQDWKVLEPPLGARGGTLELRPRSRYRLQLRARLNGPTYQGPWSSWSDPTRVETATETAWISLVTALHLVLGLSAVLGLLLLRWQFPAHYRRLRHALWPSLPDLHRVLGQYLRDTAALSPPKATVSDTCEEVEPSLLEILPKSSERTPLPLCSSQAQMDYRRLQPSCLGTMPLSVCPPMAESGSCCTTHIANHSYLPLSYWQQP
The test is described as follows: Thrombopoietin dependent cell proliferation assay (MTT), TPO-R transfected Ba/F3 cells. The class given is cell-based.
Protocol: Bioactivity of the peptides can be measured using a thrombopoietin dependent cell proliferation assay. Murine IL-3 dependent Ba/F3 cells were transfected with full length human TPO-R. In the absence of IL-3 (WEHI-3 conditioned media), these cells are dependent on TPO for proliferation.
The cells were grown in complete RPMI-10 media, containing 10% WEHI-3 conditioned media, then washed twice in PBS, resuspended in media which lacked WEHI-3 conditioned media, and added to wells containing dilutions of peptide or TPO at 2×10^4 cells/well. The cells were incubated for 48 hours at 37° C. in a humidified 5% CO2 atmosphere and metabolic activity was assayed by the reduction of MTT to formazan, with absorbance at 570 nm measured on an ELISA plate reader.

For a further test, the target named is T2, TPO receptor (Homo sapiens, UniProt P40238).
T2 sequence (P40238 26-635): T1 sequence (P40238 26-635)
The test is described as follows: Microphysiometer assay: rate of acidification of extracellular medium on TPO receptor stimulation. The class given is cell-based.

A further test concerns the target T3, TPO-R (Homo sapiens, UniProt P40238).
T3 construct: made in house
T3 sequence (P40238 26-491 limits assumed): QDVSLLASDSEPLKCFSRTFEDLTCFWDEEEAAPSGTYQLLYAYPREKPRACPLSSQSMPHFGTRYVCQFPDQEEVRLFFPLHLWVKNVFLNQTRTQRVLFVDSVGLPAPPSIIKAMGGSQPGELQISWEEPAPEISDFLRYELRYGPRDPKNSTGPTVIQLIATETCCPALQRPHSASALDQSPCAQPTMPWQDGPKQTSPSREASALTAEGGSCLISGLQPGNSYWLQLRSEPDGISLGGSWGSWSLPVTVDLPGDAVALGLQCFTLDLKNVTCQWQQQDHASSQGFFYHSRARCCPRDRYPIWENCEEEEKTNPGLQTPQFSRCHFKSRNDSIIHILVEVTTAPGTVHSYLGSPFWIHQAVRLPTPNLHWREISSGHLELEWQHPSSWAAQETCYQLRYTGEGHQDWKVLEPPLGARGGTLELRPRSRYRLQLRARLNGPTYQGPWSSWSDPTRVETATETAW
Put plainly: Competition binding assay (equilibrium binding ELISA, MBP-TPO156 tracer) on immobilized TPO-R. To be noted: Table 5; read-out: IC50. Here is the method: A variety of methods can be used to evaluate IC50 values. For example, an equilibrium binding ELISA assay, using either MBP-TPO or lacI-peptide tracer, was used to determine whether the peptides inhibit the binding of TPO to the extracellular domain of the TPO receptor. Typically, the IC50 value were determined using the free peptide. The IC50 value can be determined using the free peptide, which optionally can be C-terminally amidated, or can be prepared as an ester or other carboxy amide.
Binding affinities of chemically synthesized peptides for TPO-R were measured in a competition binding assay. The wells of a microtiter plate were coated with 1 mg streptavidin, blocked with PBS/1% BSA, followed by 50 ng of biotinylated anti-receptor immobilizing antibody (Ab179). The wells were then treated with a 1:10 dilution of soluble TPO-R harvest. Various concentrations of peptide or peptide mimetic were mixed with a constant amount of a truncated form of TPO consisting of residues 1-156 fused to the C-terminus of maltose binding protein (MBP-TPO156). The peptide MBP-TPO156 mixtures were added to the TPO-R coated wells, incubated for 2 hours at 4° C. and then washed with PBS. The amount of MBP-TPO156 that was bound at equilibrium was measured by adding a rabbit anti-sera directed against MBP, followed by alkaline phosphatase conjugated goat anti-rabbit IgG. The amount of alkaline phosphatase in each well was then determined using standard methods.
The assay is conducted over a range of peptide concentrations and the results are graphed such that the y axis represents the amount of bound MBP-TPO156 and the x axis represents the concentration of peptide or peptide mimetic.
A general note: ELISA stands for enzyme-linked immunosorbent assay.

Where [2] appears, read: Table 4, cyclized compounds, read-out: EC50 (nM) Proliferation.
Setting [3] is: Table 4, cyclized compounds, microphysiometer, read-out: EC50 (nM) Microonys.

Protocol for TPO receptor: In this example cyclized compounds were subjected to three assays. […] Finally, a microphysiometer (Molecular Devices Corp.) assay was performed. […] The ranges for EC50 are symbolically indicated as for IC50 described above.

As for `CCCC1SC[C@@H](C(N)=O)NC(=O)[C@H](Cc2ccccc2)NC(=O)[C@H](CO)NC(=O)[C@H]([C@@H](C)CC)NC(=O)[C@H](Cc2c[nH]c3ccccc23)NC(=O)[C@H](CCC(=O)O)NC(=O)[C@H](CCCNC(=N)N)NC(=O)[C@H](CC(C)C)NC(=O)[C@H]([C@@H](C)O)NC(=O)[C@@H]2CCCN2C(=O)CNC(=O)[C@H](CC(=O)O)NC(=O)[C@H](C)NC1=O` (stereo partly shown) (HELM PEPTIDE1{A.D.G.P.T.L.R.E.W.I.S.F.C.[am]}|CHEM1{[CCCC(C(=O)[*:1])[*:2]]}$PEPTIDE1,CHEM1,1:R1-1:R1|PEPTIDE1,CHEM1,13:R3-1:R2$$$V2.0), the EC50 in test [1] (setting [2]) is under 500 nM; on TPO receptor (setting [3]) it was under 200000 nM.

`CC[C@H](C)[C@@H]1NC(=O)[C@H](Cc2c[nH]c3ccccc23)NC(=O)[C@H](CCC(=O)O)NC(=O)[C@H](CCCNC(=N)N)NC(=O)[C@H](CC(C)C)NC(=O)[C@H]([C@@H](C)O)NC(=O)[C@@H]2CCCN2C(=O)CNC(=O)[C@H](CC(=O)O)NC(=O)[C@H](C)NC(=O)[C@@H](N)CCC(=O)NCCCC[C@@H](C(N)=O)NC(=O)[C@H](Cc2ccccc2)NC(=O)[C@H](CO)NC1=O` (HELM PEPTIDE1{E.A.D.G.P.T.L.R.E.W.I.S.F.K.[am]}$PEPTIDE1,PEPTIDE1,1:R3-14:R3$$$V2.0): the EC50 (in test [1] (setting [2]); at TPO receptor (setting [3])) was under 200000 nM in each case.

With `CC[C@H](C)[C@@H]1NC(=O)[C@H](Cc2c[nH]c3ccccc23)NC(=O)[C@H](CCC(=O)O)NC(=O)[C@H](CCCNC(=N)N)NC(=O)[C@H](CC(C)C)NC(=O)[C@H]([C@@H](C)O)NC(=O)[C@@H]2CCCN2C(=O)CNC(=O)[C@H](CC(=O)O)NC(=O)[C@H](C)NC(=O)[C@@H](N)CCCCNC(=O)CC[C@@H](C(N)=O)NC(=O)[C@H](Cc2ccccc2)NC(=O)[C@H](CO)NC1=O` (HELM PEPTIDE1{K.A.D.G.P.T.L.R.E.W.I.S.F.E.[am]}$PEPTIDE1,PEPTIDE1,1:R3-14:R3$$$V2.0), the EC50 (in test [1] (setting [2]); at TPO receptor (setting [3])) was under 200000 nM in each case.

Turning to `CC(C)C[C@H](NC(=O)[C@H](Cc1c[nH]c2ccccc12)NC(=O)[C@H](CCC(N)=O)NC(=O)[C@H](CCCNC(=N)N)NC(=O)[C@H](CC(C)C)NC(=O)[C@@H](NC(=O)[C@@H]1CCCN1C(=O)CNC(=O)[C@H](CSSC[C@H](NC(=O)[C@H](CCC(N)=O)NC(=O)[C@@H](NC(=O)[C@@H](N)CO)C(C)C)C(=O)NCC(=O)N1CCC[C@H]1C(=O)N[C@H](C(=O)N[C@@H](CC(C)C)C(=O)N[C@@H](CCCNC(=N)N)C(=O)N[C@@H](CCC(N)=O)C(=O)N[C@@H](Cc1c[nH]c2ccccc12)C(=O)N[C@@H](CC(C)C)C(=O)N[C@@H](C)C(=O)N[C@@H](C)C(=O)N[C@@H](CCCNC(=N)N)C(=O)N[C@@H](CC(N)=O)C(=O)N[C@@H](Cc1c[nH]cn1)C(=O)N[C@@H](CC(C)C)C(=O)N[C@@H](CO)C(N)=O)[C@@H](C)O)NC(=O)[C@H](CCC(N)=O)NC(=O)[C@@H](NC(=O)[C@@H](N)CO)C(C)C)[C@@H](C)O)C(=O)N[C@@H](C)C(=O)N[C@@H](C)C(=O)N[C@@H](CCCNC(=N)N)C(=O)N[C@@H](CC(N)=O)C(=O)N[C@@H](Cc1c[nH]cn1)C(=O)N[C@@H](CC(C)C)C(=O)N[C@@H](CO)C(N)=O` (HELM PEPTIDE1{S.V.Q.C.G.P.T.L.R.Q.W.L.A.A.R.N.H.L.S.[am]}|PEPTIDE2{S.V.Q.C.G.P.T.L.R.Q.W.L.A.A.R.N.H.L.S.[am]}$PEPTIDE1,PEPTIDE2,4:R3-4:R3$$$V2.0; bridges inferred), the EC50 in test [1] (Table 7, dimer compounds, read-out: EC50 (nM) Prolif.) was under 500 nM; at TPO receptor (Table 7, dimer compounds, read-out: EC50 (nM) Microonys.) it was under 500 nM.

In the case of `CC[C@H](C)[C@@H]1NC(=O)[C@H](Cc2c[nH]c3ccccc23)NC(=O)[C@H](CCC(=O)O)NC(=O)[C@H](CCCNC(=N)N)NC(=O)[C@H](CC(C)C)NC(=O)[C@H]([C@@H](C)O)NC(=O)[C@@H]2CCCN2C(=O)CNC(=O)[C@H](CC(=O)O)NC(=O)[C@H](C)NC(=O)[C@@H](N)CCSSC[C@@H](C(N)=O)NC(=O)[C@H](Cc2ccccc2)NC(=O)[C@H](CO)NC1=O` (HELM PEPTIDE1{[N[C@@H](CCS[*:3])C(=O)[*:2]].A.D.G.P.T.L.R.E.W.I.S.F.C.[am]}$PEPTIDE1,PEPTIDE1,1:R3-14:R3$$$V2.0), the EC50 (in test [1] (setting [2]); on TPO receptor (setting [3])) was under 500 nM in each case.

Regarding `CC[C@H](C)[C@@H]1NC(=O)[C@H](Cc2c[nH]c3ccccc23)NC(=O)[C@H](CCC(=O)O)NC(=O)[C@H](CCCNC(=N)N)NC(=O)[C@H](CC(C)C)NC(=O)[C@H]([C@@H](C)O)NC(=O)[C@@H]2CCCN2C(=O)CNC(=O)[C@H](CC(=O)O)NC(=O)[C@H](C)NC(=O)CSC[C@@H](C(N)=O)NC(=O)[C@H](Cc2ccccc2)NC(=O)[C@H](CO)NC1=O` (HELM PEPTIDE1{[O=C(C[*:3])[*:2]].A.D.G.P.T.L.R.E.W.I.S.F.C.[am]}$PEPTIDE1,PEPTIDE1,1:R3-14:R3$$$V2.0), the EC50 (in test [1] (setting [2]); on TPO receptor (setting [3])) was under 500 nM each time.

Take `CC[C@H](C)[C@@H]1NC(=O)[C@H](Cc2c[nH]c3ccccc23)NC(=O)[C@H](CCC(=O)O)NC(=O)[C@H](CCCNC(=N)N)NC(=O)[C@H](CC(C)C)NC(=O)[C@H]([C@@H](C)O)NC(=O)[C@@H]2CCCN2C(=O)CNC(=O)[C@H](CC(=O)O)NC(=O)[C@H](C)NC(=O)[C@@H](N)C(C)(C)SSC(C)(C)[C@@H](C(N)=O)NC(=O)[C@H](Cc2ccccc2)NC(=O)[C@H](CO)NC1=O` (HELM PEPTIDE1{[Pen].A.D.G.P.T.L.R.E.W.I.S.F.[Pen].[am]}$PEPTIDE1,PEPTIDE1,1:R3-14:R3$$$V2.0): the EC50 (in test [1] (setting [2]); at TPO receptor (setting [3])) was under 200000 nM in each case.

In the case of `CC[C@H](C)[C@@H]1NC(=O)[C@H](Cc2c[nH]c3ccccc23)NC(=O)[C@H](CCC(=O)O)NC(=O)[C@H](CCCNC(=N)N)NC(=O)[C@H](CC(C)C)NC(=O)[C@H]([C@@H](C)O)NC(=O)[C@@H]2CCCN2C(=O)CNC(=O)[C@H](CC(=O)O)NC(=O)[C@H](C)NC(=O)[C@H](N)CSSC[C@H](C(N)=O)NC(=O)[C@H](Cc2ccccc2)NC(=O)[C@H](CO)NC1=O` (HELM PEPTIDE1{[dC].A.D.G.P.T.L.R.E.W.I.S.F.[dC].[am]}$PEPTIDE1,PEPTIDE1,1:R3-14:R3$$$V2.0), the EC50 (in test [1] (setting [2]); on TPO receptor (setting [3])) was under 200000 nM in each case.

In general, IC50 refers to the concentration needed to halve the response being measured. Regarding `CC[C@@H]1NC(=O)[C@H]([C@@H](C)CC)NC(=O)[C@H](Cc2c[nH]c3ccccc23)NC(=O)[C@H](CCC(=O)O)NC(=O)[C@H](CCCNC(=N)N)NC(=O)[C@H](CC(C)C)NC(=O)[C@H]([C@@H](C)O)NC(=O)[C@@H]2CCCN2C(=O)CNC(=O)[C@H](CC(=O)O)NC(=O)[C@H](C)NC(=O)[C@@H](N)CSSC[C@@H](C(N)=O)NC(=O)[C@H](Cc2ccccc2)NC1=O` [S-Abu] (HELM PEPTIDE1{C.A.D.G.P.T.L.R.E.W.I.[Abu].F.C.[am]}$PEPTIDE1,PEPTIDE1,1:R3-14:R3$$$V2.0; N-terminus and C-terminus assumed), on TPO-R, the half-inhibitory concentration (IC50) is at most 0.5 µM. In addition, the EC50 was under 500 nM in test [1] (Table 5, substitutions in cyclized compound, read-out: EC50 (nM) Cell Prolif.) and under 500 nM in test [1] (Table 6, read-out: EC50 (nM) Cell Prolif.).
